From patent publication US20230346741A1, “ERIODICTYOL COMPOSITIONS AND METHODS” (CAS PROPERTIES, LLC, priority 2022, published 2023) come the findings set out here.

Assay [1] has as its system IL-1β secretion, human SV40 microglia cells. Kind of assay: IL-1β secretion by LPS-stimulated human SV40 microglia after pretreatment. The class given is cell-based. Particulars: 50 micromolar concentration; pretreated two hours, then LPS stimulation; FIG. 2. From the text: Cultured human SV40 microglia cells were pretreated with eriodictyol (Erio) or nobiletin (Nobi) for two hours to determine the degree to which eriodictyol and nobiletin inhibits the secretion of the proinflammatory cytokine interleukin-1β(IL-1β) followed by stimulation by bacteria lipopolysaccharide (LPS).

Assay [2] in a line: Treatment of a subject with long-COVID syndrome (case report). Particulars: 60 mg per day (2 x 30 mg capsules) for three months; one subject. The class given is in vivo, human. As for the experimental part: A subject having a diagnosis of long-COVID syndrome was administered 60 milligrams (mg) eriodictyol (30 mg/vegetarian capsule; 2 capsules daily) per day for three months. The subject reported an over 80% reduction in long-covid symptoms that included a 80% reduction in fatigue, brain fog, difficulty concentrating, difficulty remembering, difficulty finding the right words, and difficulty multi-tasking.

For a further assay, the system named is Chikungunya virus. Kind of assay: Plaque reduction in human microglia cells infected with Chikungunya virus. Particulars: 100 micromolar concentration; FIG. 1.

Molecules are shown by their SMILES.

Turning to `O=C1C[C@@H](c2ccc(O)c(O)c2)Oc2cc(O)cc(O)c21` [eriodictyol, (2S)-2-(3,4-Dihydroxyphenyl)-5,7-dihydroxy-2,3-dihydro-4H-1-benzopyran-4-one], in assay [1], the “inhibition of IL-1β secretion compared with luteolin and methoxyluteolin” value is “more potent inhibitors of IL-1β secretion as compared to luteolin (Lut) and methoxyluteolin (Methlut)”. In addition, in assay [2], the “reduction in fatigue, brain fog, difficulty concentrating, remembering, finding the right words and multi-tasking (subject-reported)” value turned out to be 80%; the “reduction in long-covid symptoms (subject-reported)” value is recorded as “over 80%”. Moreover, the “potency of plaque inhibition compared with nobiletin” value in the assay with Chikungunya virus is recorded as “slightly more potent inhibitor than nobiletin”.
On to `COc1ccc(-c2cc(=O)c3c(OC)c(OC)c(OC)c(OC)c3o2)cc1OC` [nobiletin, reference compound], for which the “inhibition of IL-1β secretion compared with luteolin and methoxyluteolin” value in assay [1] is “more potent inhibitors of IL-1β secretion as compared to luteolin (Lut) and methoxyluteolin (Methlut)”.
